Results on 7 molecules are retold here after PubChem BioAssay (NCI).

“And” between values parts separate entries of the source, which are not always exact repeats. Equal entries are not always repeated.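 Values below derive from 48-hour exposures of cells grown in 96-well plates, with endpoints linearly interpolated between the two concentrations bracketing the appropriate inhibition level. Abbreviation: GI50, concentration required for 50% inhibition of growth. TGI marks complete inhibition of growth.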

Test systems include MALME-3M melanoma; UACC-257 melanoma; NCI/ADR-RES ovarian; UACC-62 melanoma; UO-31 renal; OVCAR-4 ovarian; 786-0 renal; TK-10 renal; SK-MEL-5 melanoma; HT29 colon.
Holding throughout (experiment): NCI-60 cell line screen, 48 h

On to `COc1ccc(/C=C2\CCC(CN(C)C)C2=O)cc1OC` (centres undefined), for which the TGI in the assay on MALME-3M melanoma came out at 11.7 µM; in the assay on UACC-257 melanoma, 17 µM; in the assay on NCI/ADR-RES ovarian, 7.19 µM; with UACC-62 melanoma, 12.7 µM; with UO-31 renal it was 24.6 µM; in the assay with OVCAR-4 ovarian, 18.4 µM. Further, the TGI turned out to be 6.42 µM with 786-0 renal, 18.7 µM in the assay on TK-10 renal, 23.9 µM with SK-MEL-5 melanoma and 23.5 µM in the assay on HT29 colon.

On to `OCC1OC(n2cnc3c(=S)nc[nH]c32)C(O)C1O` (centres undefined), for which the GI50 with MALME-3M melanoma was greater than 30 µM; in the assay on UACC-257 melanoma, greater than 100 µM; in the assay on NCI/ADR-RES ovarian, 3.52 µM; in the assay with UACC-62 melanoma it was 3.56 µM; in the assay on OVCAR-4 ovarian it was 4.05 µM; in the assay with 786-0 renal, 2.71 µM. Also, the GI50 in the assay on TK-10 renal is 4.37 µM; in the assay on SK-MEL-5 melanoma, 9.5 µM; with HT29 colon, 4.72 µM. Also, the TGI is 2480 µM and > 100 µM with MALME-3M melanoma; greater than 2500 µM in the assay with UACC-257 melanoma; greater than 2500 µM with NCI/ADR-RES ovarian; 1910 µM and > 100 µM in the assay with UACC-62 melanoma; greater than 2500 µM with UO-31 renal; greater than 2500 µM in the assay on OVCAR-4 ovarian. For the same molecule, the TGI with 786-0 renal, in the assay on TK-10 renal, with SK-MEL-5 melanoma and in the assay on HT29 colon was greater than 2500 µM each time.

In the case of `CCNCCNc1cc(C2CCCCC2)c(C#N)c2nc3ccccc3n12`, the GI50 in the assay with MALME-3M melanoma was 1.8 µM; in the assay with UACC-257 melanoma it was 2.34 µM; with NCI/ADR-RES ovarian, 2.35 µM; with UACC-62 melanoma it was 1.9 µM; in the assay on UO-31 renal, 1.66 µM; in the assay with OVCAR-4 ovarian, 2.1 µM. The GI50 in the assay with 786-0 renal was 1.57 µM; in the assay on TK-10 renal, 2.41 µM; with SK-MEL-5 melanoma it was 1.71 µM; with HT29 colon, 1.73 µM. In addition, the TGI turned out to be 3.48 µM in the assay on MALME-3M melanoma; 4.38 µM with UACC-257 melanoma; 6.82 µM in the assay with NCI/ADR-RES ovarian; 3.75 µM in the assay on UACC-62 melanoma; 3.36 µM in the assay on UO-31 renal; 6.42 µM in the assay with OVCAR-4 ovarian. The TGI was determined as 3.04 µM with 786-0 renal, 6.12 µM with TK-10 renal, 3.1 µM in the assay on SK-MEL-5 melanoma and 3.82 µM with HT29 colon.

Regarding `CCN(CC)c1ccc(C(=N)c2ccc(N(C)C)cc2)cc1`, the GI50 was 0.205 µM in the assay on MALME-3M melanoma; 1.36 µM in the assay on UACC-257 melanoma; 0.187 µM with NCI/ADR-RES ovarian; 1.35 µM with UACC-62 melanoma; 1.45 µM in the assay on UO-31 renal; 2.75 µM in the assay on OVCAR-4 ovarian. For the same molecule, the GI50 in the assay on 786-0 renal is 1.71 µM; with TK-10 renal it was 2.41 µM; with SK-MEL-5 melanoma, 0.159 µM; in the assay with HT29 colon it was 0.0399 µM. The TGI was 4.76 µM in the assay with MALME-3M melanoma; 5.11 µM in the assay on UACC-257 melanoma; 2.94 µM in the assay with NCI/ADR-RES ovarian; 7.03 µM with UACC-62 melanoma; 7.73 µM in the assay on UO-31 renal; greater than 39.5 µM in the assay with OVCAR-4 ovarian. For the same molecule, the TGI worked out at 4.45 µM in the assay on 786-0 renal, 8.02 µM with TK-10 renal, 1.94 µM in the assay with SK-MEL-5 melanoma and 4.02 µM with HT29 colon.

With `C=C1CCC2C3(C)COC(c4ccccc4Br)OC3CCC2(C)C1C/C=C1/C(=O)OCC1OC(C)=O` (centres undefined), the GI50 in the assay on MALME-3M melanoma is 1.92 µM; in the assay with UACC-257 melanoma it was 1.57 µM; in the assay with NCI/ADR-RES ovarian, 1.18 µM; with UACC-62 melanoma, 1.42 µM; with UO-31 renal, 1.34 µM; in the assay with OVCAR-4 ovarian, 1.43 µM. The GI50 with 786-0 renal was 1.63 µM; in the assay with TK-10 renal it was 1.91 µM; in the assay on SK-MEL-5 melanoma, 1.6 µM; in the assay with HT29 colon it was 0.804 µM. The TGI in the assay on MALME-3M melanoma came to 4.12 µM; in the assay on UACC-257 melanoma it was 2.99 µM; with NCI/ADR-RES ovarian it was 3.12 µM; with UACC-62 melanoma, 2.86 µM; with UO-31 renal, 2.72 µM; with OVCAR-4 ovarian, 2.83 µM. For the same molecule, the TGI worked out at 2.98 µM with 786-0 renal, 3.67 µM with TK-10 renal, 2.98 µM with SK-MEL-5 melanoma and 2.37 µM in the assay on HT29 colon.

Regarding `Nc1n[nH]c2ccc([C@@H]3Nc4ccc5[nH]ncc5c4[C@H]4C5C=CC(C5)[C@@H]34)cc12` (some centres undefined), the GI50 is 0.655 µM with MALME-3M melanoma; 12.5 µM in the assay on UACC-257 melanoma; 0.298 µM with NCI/ADR-RES ovarian; 0.213 µM in the assay with UACC-62 melanoma; 0.769 µM with UO-31 renal; 1.76 µM in the assay with OVCAR-4 ovarian. Also, the GI50 with 786-0 renal was 0.6 µM; with TK-10 renal, 12 µM; in the assay with SK-MEL-5 melanoma, 0.338 µM; with HT29 colon, 0.357 µM. For the same molecule, the TGI is 35.3 µM in the assay on MALME-3M melanoma; 58.5 µM with UACC-257 melanoma; 2.28 µM with NCI/ADR-RES ovarian; 18.5 µM with UACC-62 melanoma; 31.7 µM with UO-31 renal; greater than 90.7 µM in the assay with OVCAR-4 ovarian. Also, the TGI in the assay on 786-0 renal was 16.8 µM; in the assay with TK-10 renal, greater than 100 µM; in the assay with SK-MEL-5 melanoma it was 1.58 µM; in the assay with HT29 colon, 28.7 µM.

As for `O=C(CN1CCN(c2ccccc2)CC1)N1CCN(c2nnc(-c3ccc(Cl)cc3)c(-c3ccc(Cl)cc3)n2)CC1`, the GI50 is 9.35 µM with MALME-3M melanoma; 14.7 µM in the assay with UACC-257 melanoma; 8.05 µM with NCI/ADR-RES ovarian; 15.9 µM in the assay with UACC-62 melanoma; 2.04 µM in the assay on UO-31 renal; 11 µM in the assay on OVCAR-4 ovarian. Also, the GI50 was 11.6 µM with 786-0 renal, 5.97 µM with TK-10 renal, 6.03 µM in the assay with SK-MEL-5 melanoma and 4.04 µM in the assay on HT29 colon. In addition, the TGI in the assay on MALME-3M melanoma, in the assay with UACC-257 melanoma, with NCI/ADR-RES ovarian, with UACC-62 melanoma, in the assay on UO-31 renal and in the assay on OVCAR-4 ovarian was greater than 100 µM in each case. Further, the TGI is 53 µM in the assay with 786-0 renal, greater than 100 µM in the assay with TK-10 renal, 29.6 µM with SK-MEL-5 melanoma and 24 µM with HT29 colon.
